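A five-concentration, 48-hour dose response in 96-well plates underlies each endpoint, interpolated linearly between surrounding concentrations. TGI denotes the concentration required for complete inhibition of growth.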
Experiments:
Test in all cases: NCI-60 cell line screen, 48 h
UO-31 renal = system: UO-31 renal
SNB-75 CNS = system: SNB-75 CNS
MCF7 breast = system: MCF7 breast
HOP-62 NSCLC = system: HOP-62 NSCLC
SK-MEL-28 melanoma = system: SK-MEL-28 melanoma
SK-MEL-5 melanoma = system: SK-MEL-5 melanoma
A498 renal = system: A498 renal
U251 CNS = system: U251 CNS
BT-549 breast = system: BT-549 breast
HT29 colon = system: HT29 colon
COLO 205 colon = system: COLO 205 colon
MDA-MB-435 = system: MDA-MB-435
OVCAR-3 ovarian = system: OVCAR-3 ovarian
MDA-MB-231 breast = system: MDA-MB-231 breast
HCC-2998 colon = system: HCC-2998 colon
SF-539 CNS = system: SF-539 CNS
DU-145 prostate = system: DU-145 prostate
SK-OV-3 ovarian = system: SK-OV-3 ovarian
HCT-15 colon = system: HCT-15 colon
UACC-257 melanoma = system: UACC-257 melanoma
SN12C renal = system: SN12C renal
HOP-92 NSCLC = system: HOP-92 NSCLC
OVCAR-4 ovarian = system: OVCAR-4 ovarian
MALME-3M melanoma = system: MALME-3M melanoma
SF-268 CNS = system: SF-268 CNS
OVCAR-8 ovarian = system: OVCAR-8 ovarian
NCI-H522 lung = system: NCI-H522 lung
KM12 colon = system: KM12 colon
SW-620 colon = system: SW-620 colon
MOLT-4 leukemia = system: MOLT-4 leukemia
MDA-N = system: MDA-N
LOX IMVI melanoma = system: LOX IMVI melanoma
UACC-62 melanoma = system: UACC-62 melanoma
IGROV1 ovarian = system: IGROV1 ovarian
EKVX NSCLC = system: EKVX NSCLC
RPMI-8226 leukemia = system: RPMI-8226 leukemia
NCI-H460 lung = system: NCI-H460 lung
M14 melanoma = system: M14 melanoma
NCI-H23 lung = system: NCI-H23 lung
OVCAR-5 ovarian = system: OVCAR-5 ovarian
TK-10 renal = system: TK-10 renal
SNB-19 CNS = system: SNB-19 CNS
K-562 leukemia = system: K-562 leukemia
SR leukemia = system: SR leukemia
HS 578T breast = system: HS 578T breast
NCI/ADR-RES ovarian = system: NCI/ADR-RES ovarian
SF-295 CNS = system: SF-295 CNS
NCI-H226 lung = system: NCI-H226 lung
ACHN renal = system: ACHN renal
CAKI-1 renal = system: CAKI-1 renal
786-0 renal = system: 786-0 renal
PC-3 prostate = system: PC-3 prostate
RXF 393 renal = system: RXF 393 renal
HL-60(TB) leukemia = system: HL-60(TB) leukemia
SK-MEL-2 melanoma = system: SK-MEL-2 melanoma
HCT-116 colon = system: HCT-116 colon
CCRF-CEM leukemia = system: CCRF-CEM leukemia
T-47D breast = system: T-47D breast
A549 NSCLC = system: A549 NSCLC

CSC1NC(c2ccc(Cl)cc2)=C(C#N)C(=O)N1C1OCC(OC(C)=O)C(OC(C)=O)C1OC(C)=O (stereo not given)
TGI (UO-31 renal): > 100 µM
TGI (SNB-75 CNS): > 100 µM
TGI (MCF7 breast): > 100 µM
TGI (HOP-62 NSCLC): > 100 µM
TGI (SK-MEL-28 melanoma): > 100 µM
TGI (SK-MEL-5 melanoma): > 100 µM
TGI (A498 renal): > 100 µM
TGI (U251 CNS): > 100 µM
TGI (BT-549 breast): > 100 µM
TGI (HT29 colon): > 100 µM
TGI (COLO 205 colon): > 100 µM
TGI (MDA-MB-435): > 100 µM
TGI (OVCAR-3 ovarian): > 100 µM
TGI (MDA-MB-231 breast): > 100 µM
TGI (HCC-2998 colon): > 100 µM
TGI (SF-539 CNS): > 100 µM
TGI (DU-145 prostate): > 100 µM
TGI (SK-OV-3 ovarian): > 100 µM
TGI (HCT-15 colon): > 100 µM
TGI (UACC-257 melanoma): > 100 µM
TGI (SN12C renal): > 100 µM
TGI (HOP-92 NSCLC): > 100 µM
TGI (OVCAR-4 ovarian): > 100 µM
TGI (MALME-3M melanoma): > 100 µM
TGI (SF-268 CNS): > 100 µM
TGI (OVCAR-8 ovarian): > 100 µM
TGI (NCI-H522 lung): > 100 µM
TGI (KM12 colon): > 100 µM
TGI (SW-620 colon): > 100 µM
TGI (MOLT-4 leukemia): > 100 µM
TGI (MDA-N): > 100 µM
TGI (LOX IMVI melanoma): > 100 µM
TGI (UACC-62 melanoma): > 100 µM
TGI (IGROV1 ovarian): > 100 µM
TGI (EKVX NSCLC): > 100 µM
TGI (RPMI-8226 leukemia): > 100 µM
TGI (NCI-H460 lung): > 100 µM
TGI (M14 melanoma): > 100 µM
TGI (NCI-H23 lung): > 100 µM
TGI (OVCAR-5 ovarian): > 100 µM
TGI (TK-10 renal): > 100 µM
TGI (SNB-19 CNS): > 100 µM
TGI (K-562 leukemia): > 100 µM
TGI (SR leukemia): > 100 µM
TGI (HS 578T breast): > 100 µM
TGI (NCI/ADR-RES ovarian): > 100 µM
TGI (SF-295 CNS): > 100 µM
TGI (NCI-H226 lung): > 100 µM
TGI (ACHN renal): > 100 µM
TGI (CAKI-1 renal): > 100 µM
TGI (786-0 renal): > 100 µM
TGI (PC-3 prostate): > 100 µM

c1cnc(N2CCN(Cc3c[nH]c4ccccc34)CC2)nc1
TGI (UO-31 renal): > 100 µM
TGI (SNB-75 CNS): > 100 µM
TGI (MCF7 breast): 53.7 µM
TGI (HOP-62 NSCLC): > 100 µM
TGI (RXF 393 renal): > 100 µM
TGI (SK-MEL-28 melanoma): > 100 µM
TGI (SK-MEL-5 melanoma): > 100 µM
TGI (A498 renal): > 100 µM
TGI (U251 CNS): > 100 µM
TGI (BT-549 breast): > 100 µM
TGI (HT29 colon): > 100 µM
TGI (COLO 205 colon): 67.6 µM
TGI (MDA-MB-435): > 100 µM
TGI (OVCAR-3 ovarian): > 100 µM
TGI (MDA-MB-231 breast): > 100 µM
TGI (HCC-2998 colon): 38.9 µM
TGI (SF-539 CNS): 67 µM
TGI (HL-60(TB) leukemia): > 100 µM
TGI (DU-145 prostate): 94.2 µM
TGI (SK-OV-3 ovarian): > 100 µM
TGI (HCT-15 colon): > 100 µM
TGI (UACC-257 melanoma): > 100 µM
TGI (SN12C renal): > 100 µM
TGI (HOP-92 NSCLC): > 100 µM
TGI (OVCAR-4 ovarian): > 100 µM
TGI (MALME-3M melanoma): > 100 µM
TGI (SK-MEL-2 melanoma): 31.4 µM
TGI (SF-268 CNS): > 100 µM
TGI (OVCAR-8 ovarian): > 100 µM
TGI (NCI-H522 lung): > 100 µM
TGI (KM12 colon): 76.6 µM
TGI (SW-620 colon): > 100 µM
TGI (HCT-116 colon): > 100 µM
TGI (MOLT-4 leukemia): > 100 µM
TGI (MDA-N): > 100 µM
TGI (CCRF-CEM leukemia): > 100 µM
TGI (LOX IMVI melanoma): > 100 µM
TGI (UACC-62 melanoma): > 100 µM
TGI (IGROV1 ovarian): > 100 µM
TGI (EKVX NSCLC): > 100 µM
TGI (RPMI-8226 leukemia): 63.7 µM
TGI (NCI-H460 lung): > 100 µM
TGI (M14 melanoma): > 100 µM
TGI (NCI-H23 lung): > 100 µM
TGI (OVCAR-5 ovarian): > 100 µM
TGI (TK-10 renal): > 100 µM
TGI (SNB-19 CNS): > 100 µM
TGI (K-562 leukemia): > 100 µM
TGI (HS 578T breast): > 100 µM
TGI (NCI/ADR-RES ovarian): > 100 µM
TGI (SF-295 CNS): > 100 µM
TGI (T-47D breast): 72.2 µM
TGI (NCI-H226 lung): > 100 µM
TGI (ACHN renal): > 100 µM
TGI (A549 NSCLC): > 100 µM
TGI (CAKI-1 renal): > 100 µM
TGI (786-0 renal): 31.9 µM
TGI (PC-3 prostate): > 100 µM

From PubChem BioAssay (NCI)
